# In patent publication US20080009418A1, “Selective Inhibitors” (Alchemia LTD., priority 2004, published 2008):
# What was measured:
# Human neurokinin (NK1) = biological target: T1, Human neurokinin (NK1) (Homo sapiens, UniProt P25103); assay: Radioligand binding, human neurokinin NK1 membranes, filtration, [125I]-Substance P; details: compound at 10 μM; for A8: inhibition of radioligand binding, human neurokinin (NK1) / A8: inhibition of radioligand binding: [125I]-Substance P; for A8: inhibition of radioligand binding: filtration
# T1 construct: purchased Perkin Elmer Biosignal
# T1 sequence (P25103 whole entry): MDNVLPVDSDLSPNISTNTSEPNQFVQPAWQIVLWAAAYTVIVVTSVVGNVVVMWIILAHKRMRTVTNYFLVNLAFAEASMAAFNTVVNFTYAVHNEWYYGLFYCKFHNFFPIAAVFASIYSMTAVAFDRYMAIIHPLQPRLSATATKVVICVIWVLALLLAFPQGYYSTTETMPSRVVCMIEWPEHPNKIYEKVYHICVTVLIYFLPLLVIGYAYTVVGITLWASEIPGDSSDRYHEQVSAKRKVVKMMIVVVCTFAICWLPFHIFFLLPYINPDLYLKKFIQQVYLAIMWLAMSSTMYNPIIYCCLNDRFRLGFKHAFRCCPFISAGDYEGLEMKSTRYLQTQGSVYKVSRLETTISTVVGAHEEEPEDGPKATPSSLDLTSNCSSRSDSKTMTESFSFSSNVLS
# How it was run: (§1)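 Filtration binding on cloned human receptor membranes (1 Unit/well), [125I]-Substance P for NK1 and [3H]-Diprenorphine for KOP, 1 h at room temperature. Filters PEI-presoaked, washed with cold 50 mM Tris-HCl pH 7.4, counted by scintillation; percent inhibition calculated, reference ligand defining non-specific binding.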
# Mouse urotensin (mUR2) = biological target: T2, Mouse urotensin (mUR2) (Mus musculus, UniProt Q8VIH9); assay: Radioligand binding, mouse urotensin mUR2 membranes, FlashPlate, [125I]-Urotensin II; details: compound at 10 μM; for A11: inhibition of radioligand binding, mouse urotensin (mUR2) / A11: inhibition of radioligand binding: [125I]-Urotensin II; for A11: inhibition of radioligand binding: FlashPlate
# T2 construct: purchased Perkin Elmer Biosignal
# T2 sequence (Q8VIH9 1-385): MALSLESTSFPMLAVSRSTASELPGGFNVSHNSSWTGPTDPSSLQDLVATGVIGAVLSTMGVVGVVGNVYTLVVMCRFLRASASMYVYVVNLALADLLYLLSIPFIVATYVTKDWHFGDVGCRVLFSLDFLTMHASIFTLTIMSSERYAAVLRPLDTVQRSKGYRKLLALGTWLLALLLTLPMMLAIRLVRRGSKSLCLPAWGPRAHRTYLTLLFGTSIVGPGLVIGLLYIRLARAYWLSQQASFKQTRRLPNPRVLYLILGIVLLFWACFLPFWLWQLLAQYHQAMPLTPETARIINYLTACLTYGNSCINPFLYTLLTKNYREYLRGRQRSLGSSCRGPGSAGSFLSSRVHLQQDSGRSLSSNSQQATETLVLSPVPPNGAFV
# How it was run: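 Cloned mouse urotensin (mUR2) receptor membranes from Perkin Elmer Biosignal were immobilized in FlashPlate microplates using a proprietary coating. Each well got 19.5 μl buffer, then 0.5 μl of DMSO, reference ligand, or compound. Adding 5 μl of [125I]-Urotensin II, diluted to 5× final concentration in binding buffer, started binding. Plates were sealed with TopSeal-A and incubated 1 hour at room temperature in the dark. Wells were counted for 30 seconds each on a TopCount after a 60-second delay, and percentage inhibition was calculated.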
# Human opioid (ORL1) = biological target: T3, Human opioid (ORL1) (Homo sapiens, UniProt P41146); assay: Radioligand binding, human opioid ORL1 membranes, FlashPlate, [125I]-Nociceptin; details: compound at 10 μM; for A10: inhibition of radioligand binding, human opioid (ORL1) / A10: inhibition of radioligand binding: [125I]-Nociceptin; for A10: inhibition of radioligand binding: FlashPlate
# T3 construct: purchased Perkin Elmer Biosignal
# T3 sequence (P41146 whole entry): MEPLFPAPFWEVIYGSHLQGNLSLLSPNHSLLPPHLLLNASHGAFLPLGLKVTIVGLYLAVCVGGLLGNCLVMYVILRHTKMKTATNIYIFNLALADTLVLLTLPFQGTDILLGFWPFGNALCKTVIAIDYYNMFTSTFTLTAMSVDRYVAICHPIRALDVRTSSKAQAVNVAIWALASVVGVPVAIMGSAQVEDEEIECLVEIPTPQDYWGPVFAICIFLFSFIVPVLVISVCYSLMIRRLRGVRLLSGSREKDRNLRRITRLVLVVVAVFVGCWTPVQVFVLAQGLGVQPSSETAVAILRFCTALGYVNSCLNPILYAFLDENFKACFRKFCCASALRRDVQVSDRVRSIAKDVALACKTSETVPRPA
# How it was run: (§2)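 Cloned human receptor membranes were coated onto FlashPlate wells and incubated with radioligand and compound (added from a 0.5 mM DMSO daughter plate) for 1 hour at room temperature in the dark. Scintillation counting gave percent inhibition, with DMSO defining total and reference ligand defining non-specific binding.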
# Human melanocortin (MC5) = biological target: T4, Human melanocortin (MC5) (Homo sapiens, UniProt P33032); assay: Radioligand binding, human melanocortin MC5 membranes, FlashPlate, [125I]-NDP-αMSH; details: compound at 10 μM; for A5: inhibition of radioligand binding, human melanocortin (MC5) / A5: inhibition of radioligand binding: [125I]-NDP-αMSH; for A5: inhibition of radioligand binding: FlashPlate
# T4 construct: purchased Perkin Elmer Biosignal
# T4 sequence (P33032 whole entry): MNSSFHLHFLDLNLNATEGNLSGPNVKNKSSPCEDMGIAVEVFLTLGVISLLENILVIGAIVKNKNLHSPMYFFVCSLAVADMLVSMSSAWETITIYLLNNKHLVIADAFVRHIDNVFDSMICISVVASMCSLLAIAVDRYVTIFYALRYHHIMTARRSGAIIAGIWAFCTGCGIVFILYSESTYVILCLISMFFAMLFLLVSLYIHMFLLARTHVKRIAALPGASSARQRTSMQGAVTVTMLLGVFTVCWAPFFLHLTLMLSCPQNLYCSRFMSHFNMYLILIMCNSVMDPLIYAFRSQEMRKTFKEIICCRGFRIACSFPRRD
# How it was run: as §2
# Human Melanocortin (MC4) = biological target: T5, Human Melanocortin (MC4) (Homo sapiens, UniProt P32245); assay: Radioligand binding, human melanocortin MC4 membranes, FlashPlate, [125I]-NDP-αMSH; details: compound at 10 μM; for A4: inhibition of radioligand binding, human melanocortin (MC4) / A4: inhibition of radioligand binding: [125I]-NDP-αMSH; for A4: inhibition of radioligand binding: FlashPlate
# T5 construct: purchased Perkin Elmer Biosignal
# T5 sequence (P32245 whole entry): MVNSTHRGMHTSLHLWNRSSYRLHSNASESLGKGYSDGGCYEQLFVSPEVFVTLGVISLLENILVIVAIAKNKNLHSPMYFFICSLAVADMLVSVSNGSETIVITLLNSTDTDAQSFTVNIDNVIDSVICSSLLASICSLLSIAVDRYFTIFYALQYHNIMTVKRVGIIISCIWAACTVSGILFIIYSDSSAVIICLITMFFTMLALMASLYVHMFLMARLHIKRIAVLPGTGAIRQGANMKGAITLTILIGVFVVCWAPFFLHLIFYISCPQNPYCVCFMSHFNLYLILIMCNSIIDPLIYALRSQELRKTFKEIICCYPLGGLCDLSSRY
# How it was run: as §2
# [1] = biological target: T6, Human melanin-concentrating hormone (MCH1) (Homo sapiens, UniProt Q99705); assay: Radioligand binding, human melanin-concentrating hormone MCH1 membranes, FlashPlate, [125I]-S36057; details: compound at 10 μM; for A6: inhibition of radioligand binding, human melanin-concentrating hormone (MCH1): [125I]-S36057; for A6: inhibition of radioligand binding: [125I]-S36057, FlashPlate
# T6 construct: purchased Perkin Elmer Biosignal
# T6 sequence (Q99705 whole entry): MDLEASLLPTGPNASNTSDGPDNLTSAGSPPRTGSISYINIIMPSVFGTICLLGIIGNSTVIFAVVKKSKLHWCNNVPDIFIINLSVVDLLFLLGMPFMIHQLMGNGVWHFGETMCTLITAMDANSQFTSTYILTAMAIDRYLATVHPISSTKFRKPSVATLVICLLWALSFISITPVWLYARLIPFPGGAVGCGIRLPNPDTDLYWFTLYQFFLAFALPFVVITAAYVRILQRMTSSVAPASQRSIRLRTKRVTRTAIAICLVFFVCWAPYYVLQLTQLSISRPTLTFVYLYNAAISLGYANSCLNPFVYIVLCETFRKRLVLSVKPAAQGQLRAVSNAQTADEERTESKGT
# How it was run: as §2
# Human Melanocortin (MC3) = biological target: T7, Human Melanocortin (MC3) (Homo sapiens, UniProt P41968); assay: Radioligand binding, human melanocortin MC3 membranes, FlashPlate, [125I]-NDP-αMSH; details: compound at 10 μM; for A3: inhibition of radioligand binding, human melanocortin (MC3) / A3: inhibition of radioligand binding: [125I]-NDP-αMSH; for A3: inhibition of radioligand binding: FlashPlate
# T7 construct: purchased Perkin Elmer Biosignal
# T7 sequence (P41968 whole entry): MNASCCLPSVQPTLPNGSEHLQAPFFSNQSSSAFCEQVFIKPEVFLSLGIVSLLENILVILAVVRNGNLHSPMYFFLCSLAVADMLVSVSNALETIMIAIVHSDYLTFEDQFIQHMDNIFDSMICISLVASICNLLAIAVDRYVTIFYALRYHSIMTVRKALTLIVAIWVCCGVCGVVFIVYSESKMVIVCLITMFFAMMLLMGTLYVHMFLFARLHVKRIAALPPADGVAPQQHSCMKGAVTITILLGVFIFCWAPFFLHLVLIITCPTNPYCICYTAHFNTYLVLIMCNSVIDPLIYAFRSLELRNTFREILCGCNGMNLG
# How it was run: as §2
# [2] = biological target: T8, Human neuropeptide Y (NPY-Y1) (Homo sapiens, UniProt P25929); assay: Radioligand binding, human neuropeptide Y NPY-Y1 membranes, FlashPlate, [125I]-PYY; details: compound at 10 μM; for A9: inhibition of radioligand binding, human neuropeptide Y (NPY-Y1) / A9: inhibition of radioligand binding: [125I]-PYY; for A9: inhibition of radioligand binding: FlashPlate
# T8 construct: purchased Perkin Elmer Biosignal
# T8 sequence (P25929 1-384): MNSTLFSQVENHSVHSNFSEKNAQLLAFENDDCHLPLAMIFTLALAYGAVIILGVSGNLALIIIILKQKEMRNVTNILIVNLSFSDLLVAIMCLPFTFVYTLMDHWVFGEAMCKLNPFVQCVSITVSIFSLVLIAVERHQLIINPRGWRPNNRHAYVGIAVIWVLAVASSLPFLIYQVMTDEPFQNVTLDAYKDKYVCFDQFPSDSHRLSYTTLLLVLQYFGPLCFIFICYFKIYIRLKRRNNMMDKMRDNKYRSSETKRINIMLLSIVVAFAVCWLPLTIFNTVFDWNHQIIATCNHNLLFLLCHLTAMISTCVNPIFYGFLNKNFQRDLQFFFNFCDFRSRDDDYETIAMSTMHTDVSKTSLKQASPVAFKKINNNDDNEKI
# How it was run: as §2
# Human δ-opioid (DOP) = biological target: T9, Human δ-opioid (DOP) (Homo sapiens, UniProt P41143); assay: Radioligand binding, human δ-opioid (DOP) membranes, FlashPlate, [3H]-Bremazocine; details: compound at 10 μM; for A1: inhibition of radioligand binding, human δ-opioid (DOP) / A1: inhibition of radioligand binding: [3H]-Bremazocine; for A1: inhibition of radioligand binding: FlashPlate
# T9 construct: purchased Perkin Elmer Biosignal
# T9 sequence (P41143 whole entry): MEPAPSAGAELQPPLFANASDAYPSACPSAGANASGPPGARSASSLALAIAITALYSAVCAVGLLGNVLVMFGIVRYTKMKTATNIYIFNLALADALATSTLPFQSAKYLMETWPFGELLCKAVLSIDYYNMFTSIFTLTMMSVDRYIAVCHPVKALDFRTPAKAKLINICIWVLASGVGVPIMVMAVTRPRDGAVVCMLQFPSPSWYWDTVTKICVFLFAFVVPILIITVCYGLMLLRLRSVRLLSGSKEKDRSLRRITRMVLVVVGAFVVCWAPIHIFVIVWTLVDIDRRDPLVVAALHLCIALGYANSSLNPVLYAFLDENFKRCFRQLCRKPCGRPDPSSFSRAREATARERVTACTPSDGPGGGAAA
# How it was run: as §2
# Human κ-Opioid (KOP) = biological target: T10, Human κ-Opioid (KOP) (Homo sapiens, UniProt P41145); assay: Radioligand binding, human κ-opioid (KOP) membranes, filtration, [3H]-Diprenorphine; details: compound at 10 μM; for A2: inhibition of radioligand binding, human κ-opioid (KOP) / A2: inhibition of radioligand binding: [3H]-Diprenorphine; for A2: inhibition of radioligand binding: filtration
# T10 construct: purchased Perkin Elmer Biosignal
# T10 sequence (P41145 whole entry): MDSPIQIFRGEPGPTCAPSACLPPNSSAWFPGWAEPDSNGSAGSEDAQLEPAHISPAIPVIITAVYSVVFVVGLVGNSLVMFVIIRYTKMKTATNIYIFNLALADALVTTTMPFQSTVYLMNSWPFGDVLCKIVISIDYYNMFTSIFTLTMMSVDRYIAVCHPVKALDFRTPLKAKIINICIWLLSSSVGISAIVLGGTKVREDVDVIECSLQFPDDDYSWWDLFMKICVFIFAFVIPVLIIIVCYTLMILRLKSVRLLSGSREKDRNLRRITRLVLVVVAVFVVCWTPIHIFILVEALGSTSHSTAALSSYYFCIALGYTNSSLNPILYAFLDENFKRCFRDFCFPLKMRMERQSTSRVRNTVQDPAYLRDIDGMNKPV
# How it was run: as §1
# Human μ-opioid (MOP) = biological target: T11, Human μ-opioid (MOP) (Homo sapiens, UniProt P35372); assay: Radioligand binding, human μ-opioid (MOP) membranes, FlashPlate, [3H]-Naloxone; details: compound at 10 μM; for A7: inhibition of radioligand binding, human μ-opioid (MOP) / A7: inhibition of radioligand binding: [3H]-Naloxone; for A7: inhibition of radioligand binding: FlashPlate
# T11 construct: purchased Perkin Elmer Biosignal
# T11 sequence (P35372 whole entry): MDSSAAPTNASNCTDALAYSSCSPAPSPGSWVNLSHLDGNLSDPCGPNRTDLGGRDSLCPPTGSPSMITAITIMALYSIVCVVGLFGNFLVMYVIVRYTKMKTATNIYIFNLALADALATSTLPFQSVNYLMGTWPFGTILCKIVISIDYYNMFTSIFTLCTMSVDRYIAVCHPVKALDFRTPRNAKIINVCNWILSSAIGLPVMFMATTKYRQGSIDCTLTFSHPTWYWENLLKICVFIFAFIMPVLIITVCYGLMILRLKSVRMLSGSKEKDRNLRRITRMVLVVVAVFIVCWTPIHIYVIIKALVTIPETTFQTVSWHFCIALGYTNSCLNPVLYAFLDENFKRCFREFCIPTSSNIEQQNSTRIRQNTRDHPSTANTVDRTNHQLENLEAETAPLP
# How it was run: as §2
Compound,"A8: inhibition of radioligand binding, human neurokinin (NK1) (Human neurokinin (NK1))","A11: inhibition of radioligand binding, mouse urotensin (mUR2) (Mouse urotensin (mUR2))","A10: inhibition of radioligand binding, human opioid (ORL1) (Human opioid (ORL1))","A5: inhibition of radioligand binding, human melanocortin (MC5) (Human melanocortin (MC5))","A4: inhibition of radioligand binding, human melanocortin (MC4) (Human Melanocortin (MC4))","A6: inhibition of radioligand binding, human melanin-concentrating hormone (MCH1) [1]","A3: inhibition of radioligand binding, human melanocortin (MC3) (Human Melanocortin (MC3))","A9: inhibition of radioligand binding, human neuropeptide Y (NPY-Y1) [2]","A2: inhibition of radioligand binding, human κ-opioid (KOP) (Human κ-Opioid (KOP))",A8: inhibition of radioligand binding (Human neurokinin (NK1)),A11: inhibition of radioligand binding (Mouse urotensin (mUR2)),A10: inhibition of radioligand binding (Human opioid (ORL1)),A5: inhibition of radioligand binding (Human melanocortin (MC5)),A4: inhibition of radioligand binding (Human Melanocortin (MC4)),A6: inhibition of radioligand binding [1],A3: inhibition of radioligand binding (Human Melanocortin (MC3)),A9: inhibition of radioligand binding [2],A1: inhibition of radioligand binding (Human δ-opioid (DOP)),A2: inhibition of radioligand binding (Human κ-Opioid (KOP)),A7: inhibition of radioligand binding (Human μ-opioid (MOP)),also measured
N=C(N)NCCC(=O)N[C@H]1C(OCc2ccc(Cl)cc2)O[C@H](COCc2ccccc2)[C@@H](O)[C@@H]1OCc1ccc(-c2ccccc2)cc1 (stereo partly shown) [compound 535],+ (“+” indicates greater than 50% inhibition at 10 μM),− (“−” indicates less than 50% inhibition at 10 μM),− (“−” indicates less than 50% inhibition at 10 μM),+ (“+” indicates greater than 50% inhibition at 10 μM),+ (“+” indicates greater than 50% inhibition at 10 μM),+ (“+” indicates greater than 50% inhibition at 10 μM),+ (“+” indicates greater than 50% inhibition at 10 μM),− (“−” indicates less than 50% inhibition at 10 μM),+ (“+” indicates greater than 50% inhibition at 10 μM),–,–,–,–,–,–,–,–,–,–,–,"A1: inhibition of radioligand binding, human δ-opioid (DOP) (Human δ-opioid (DOP); 10 µM): + (“+” indicates greater than 50% inhibition at 10 μM); A7: inhibition of radioligand binding, human μ-opioid (MOP) (Human μ-opioid (MOP); 10 µM): + (“+” indicates greater than 50% inhibition at 10 μM)"
COC[C@H]1OC(OCc2ccc(-c3ccccc3)cc2)[C@H](NC(=O)CCCN)[C@@H](OCc2ccc3ccccc3c2)[C@@H]1O (stereo partly shown) [compound 5],–,–,–,–,–,–,–,–,–,–,–,–,–,–,–,–,–,–,–,–,A8 radioligand binding inhibition (Human neurokinin (NK1); human neurokinin NK1 membranes): + (“+” indicates greater than 50% inhibition at 10 μM); A11 radioligand binding inhibition (Mouse urotensin (mUR2); mouse urotensin mUR2 membranes): − (“−” indicates less than 50% inhibition at 10 μM); A10 radioligand binding inhibition (Human opioid (ORL1); human ORL1 membranes): − (“−” indicates less than 50% inhibition at 10 μM); A5 radioligand binding inhibition (Human melanocortin (MC5); human melanocortin MC5 membranes): + (“+” indicates greater than 50% inhibition at 10 μM); A4 radioligand binding inhibition (Human Melanocortin (MC4); human melanocortin MC4 membranes): − (“−” indicates less than 50% inhibition at 10 μM); A6 radioligand binding inhibition ([1]; human MCH1 membranes): − (“−” indicates less than 50% inhibition at 10 μM); A3 radioligand binding inhibition (Human Melanocortin (MC3); human melanocortin MC3 membranes): − (“−” indicates less than 50% inhibition at 10 μM); A9 radioligand binding inhibition ([2]; human NPY-Y1 membranes): − (“−” indicates less than 50% inhibition at 10 μM); A1 radioligand binding inhibition (Human δ-opioid (DOP); human δ-opioid (DOP) membranes): − (“−” indicates less than 50% inhibition at 10 μM); A2 radioligand binding inhibition (Human κ-Opioid (KOP); human κ-opioid (KOP) membranes): − (“−” indicates less than 50% inhibition at 10 μM); A7 radioligand binding inhibition (Human μ-opioid (MOP); human μ-opioid (MOP) membranes): − (“−” indicates less than 50% inhibition at 10 μM)
COCC1OC(OCc2ccc3ccccc3c2)C(NC(=O)CNC(=N)N)C(OCc2ccc3ccccc3c2)C1O (stereo not shown) [compound 247],–,–,–,–,–,–,–,–,–,+ (“+” indicates greater than 50% inhibition at 10 μM),− (“−” indicates less than 50% inhibition at 10 μM),− (“−” indicates less than 50% inhibition at 10 μM),+ (“+” indicates greater than 50% inhibition at 10 μM),+ (“+” indicates greater than 50% inhibition at 10 μM),− (“−” indicates less than 50% inhibition at 10 μM),+ (“+” indicates greater than 50% inhibition at 10 μM),− (“−” indicates less than 50% inhibition at 10 μM),− (“−” indicates less than 50% inhibition at 10 μM),− (“−” indicates less than 50% inhibition at 10 μM),− (“−” indicates less than 50% inhibition at 10 μM),–
CSC1O[C@H](COCc2ccc(-c3ccccc3)cc2)[C@@H](O)[C@@H](OCc2ccc(Cl)cc2)[C@H]1NC(=O)CCCN (stereo partly shown) [compound 278],–,–,–,–,–,–,–,–,–,+ (“+” indicates greater than 50% inhibition at 10 μM),− (“−” indicates less than 50% inhibition at 10 μM),− (“−” indicates less than 50% inhibition at 10 μM),− (“−” indicates less than 50% inhibition at 10 μM),− (“−” indicates less than 50% inhibition at 10 μM),− (“−” indicates less than 50% inhibition at 10 μM),− (“−” indicates less than 50% inhibition at 10 μM),− (“−” indicates less than 50% inhibition at 10 μM),− (“−” indicates less than 50% inhibition at 10 μM),− (“−” indicates less than 50% inhibition at 10 μM),− (“−” indicates less than 50% inhibition at 10 μM),–
N=C(N)NCCCC(=O)NC1COC(COCc2ccc(Cl)cc2)C(O)C1OCc1ccc(Cl)cc1 (stereo not shown) [compound 542],+ (“+” indicates greater than 50% inhibition at 10 μM),− (“−” indicates less than 50% inhibition at 10 μM),− (“−” indicates less than 50% inhibition at 10 μM),− (“−” indicates less than 50% inhibition at 10 μM),− (“−” indicates less than 50% inhibition at 10 μM),− (“−” indicates less than 50% inhibition at 10 μM),− (“−” indicates less than 50% inhibition at 10 μM),− (“−” indicates less than 50% inhibition at 10 μM),− (“−” indicates less than 50% inhibition at 10 μM),–,–,–,–,–,–,–,–,–,–,–,"A1: inhibition of radioligand binding, human δ-opioid (DOP) (Human δ-opioid (DOP)): − (“−” indicates less than 50% inhibition at 10 μM); A7: inhibition of radioligand binding, human μ-opioid (MOP) (Human μ-opioid (MOP)): − (“−” indicates less than 50% inhibition at 10 μM)"
